Experimental data as given in patent publication US9156826B2, “Asymmetrical reversible neuromuscular blocking agents of ultra-short, short, or intermediate duration” (Cornell University, priority 2012, dated 2015).

Tested on: mean arterial pressure
Assay: Rise in mean arterial pressure after cysteine dosing
Conditions: 100 mg/kg

N[C@H](CS)C(=O)O [D-cysteine]
rise in mean arterial pressure compared with L-cysteine: less of a rise in mean arterial pressure than L-cysteine
